Test: Particle size distribution of microbubble suspensions in the Coulter Multisizer, method b (flotation purification from gas-free particles)
Format: physicochemical
Procedure: Dye-containing suspensions of gas-containing ultrasound contrast agents of the invention were analyzed for the particle size distributions in the Coulter® Multisizer (Beckman Coulter Inc. Fullerton, Calif., USA). […] Two methods may be used to determine the distribution of just the gas-containing particles in the compositions of the invention. Method b) The frequency distribution of the diameter of gas-containing particles is obtained after purification of the initial particle suspension from gas-free particles. Purification is achieved by flotation of the gas-containing particles in a centrifuge and substitution of the infranatant containing the gas-free particles with fresh saline. The procedure is executed once or twice depending on the initial contamination by gas-free particles. This method is preferable in those cases wherein the amount of insoluble material in the gas-containing particles exceeds 10% of the total insoluble material, in the initial suspension. The results may be represented either in the form of plots of the frequency distributions (e.g. example 11 and FIG. 1) or as parameters elaborated therefrom, i. e. total microbubble concentration, total microbubble surface, microbubble volume concentration and mean diameter in number (e.g. example 12). […]

Interference with the regular formation of microbubbles (SonoVue reconstituted with saline containing Evans blue vs regular SonoVue, echographic perspective): negligible
Structure (SMILES): Cc1cc(-c2ccc(/N=N/c3ccc4c(S(=O)(=O)O)cc(S(=O)(=O)O)c(N)c4c3O)c(C)c2)ccc1/N=N/c1ccc2c(S(=O)(=O)O)cc(S(=O)(=O)O)c(N)c2c1O [Evans blue]
Stability of the microbubbles (time 0 vs after 3 h, presence of Evans blue): did not jeopardize the stability of the microbubbles
